The results in this text go back to patent US20240246968A1, “SMALL MOLECULE INHIBITORS OF KRAS G12C MUTANT” (Merck Sharp & Dohme LLC, priority 2021, published 2024).

Assay [1] addresses T1, interaction between recombinant K-Ras4B G12C mutant protein and cRAF RAS-binding domain (cRAF-RBD) (Homo sapiens, UniProt P01116, G12C).
T1 construct: made in house; host or cells: E. coli
As to the kind of experiment: Inhibitory activity on interaction between KRAS G12C and cRAF (Alpha technology). In kind it is biochemical. Particulars: GMPPNP-bound KRAS G12C incubated with compound at 25° C. for 1 hour, then cRAF-RBD; Alpha signal. As to the method:
Interaction between recombinant K-Ras4B G12C mutant protein (amino acids 1-169, SEQ ID NO:2) and cRAF RAS-binding domain (cRAF-RBD, amino acids 50-132, Jena Biosciences GmbH) was measured using Alpha technology (PerkinElmer Inc.).
Recombinant KRAS G12C protein with an N-terminal His-tag was expressed in E. coli and purified by affinity chromatography. To prepare GTP-bound form and GDP-bound form of KRAS G12C protein. 50 μM KRAS G12C protein was incubated with 1 mM GMPPNP (Guanosine-5′-[(β,γ)-imido]triphosphate. Tetralithium salt)(Jena Bioscience GmbH) and 1 mM GDP, respectively, in a loading buffer (20 mM Tris-HCl (pH 7.5), 50 mM NaCl, 1 mM DTT and 2.5 mM EDTA) for 1 hour on ice. After the incubation, MgCl2 was added to a final concentration of 10 mM, followed by incubation at room temperature for 30 minutes. The mixture was allowed to pass through a NAP-5 column to remove free nucleotides and purified, and the resultant nucleotide-bound KRAS G12C protein was used for compound evaluation.
For the measurement of the inhibitory activity of compounds on interaction between KRAS G12C and cRAF-RBD, GMPPNP-bound KRAS G12C protein was incubated with various concentrations of compound in a reaction buffer (20 mM Tris-HCl (pH 7.5), 100 mM NaCl, 1 mM MgCl2, 1 mM TCEP. 0.1% Tween 20) at 25° C. for 1 hour. After the incubation, recombinant cRAF-RBD and Alpha detection reagents were added and incubated at room temperature for 1.5 hours for binding. Interaction of KRAS G12C and cRAF-RBD was monitored by measuring Alpha signal. Inhibition % was calculated using the signal from the reaction without test compound (DMSO control) as 0% inhibition and the signal from the reaction using GDP-bound KRAS G12C in place of GMPPNP-bound KRAS G12C as 100% inhibition. IC50 values were calculated from dose titration curve using curve fitting by XLfit software (IDBS). The following tables show the results.

A further assay relates to MIA PaCa-2 cells. As to the kind of experiment: Growth inhibition activity on KRAS-G12C mutant cell line (MIA PaCa-2), CellTiter-Glo 3D. It is filed as cell-based, human. The following applies: MIA PaCa-2, 3-day culture with compound. The protocol:
MIA PaCa-2 cells (given by Sumitomo Dainippon Pharma Co., Ltd.), which are a KRAS-G12C mutant human pancreas cancer cell line, were suspended in a 10% fetal bovine serum-containing RPMI1640 medium (manufactured by Fujifilm Wako Pure Chemical Corporation.). The cell suspension was seeded into each well of a 384-well U bottom microplate and cultured in an incubator containing 5% CO2 gas at 37° C. for 1 day. The compounds obtained in the “Preparation of Compounds” section were used as test compounds and were dissolved in DMSO, respectively, and each test compound was diluted with DMSO to give a concentration 500 times the final concentration. The resultant solution of the test compound in DMSO was diluted with the medium used for suspending cells and added to each well of the cell-culture plate to give a DMSO final concentration of 0.2%, followed by culture in an incubator containing 5% CO2 gas at 37° C. for another 3 days. The cell count after 3-day culture in the presence of the test compound was measured using CellTiter-Glo 3D Reagent (manufactured by Promega Corporation). All wells were added with CellTiter-Glo 3D Reagent and mixed for 10 minutes. 30 minutes after mixing, luminescence was measured by a plate reader. The growth inhibition rate was calculated from the following equation, and the concentration of the test compound at which 50/o inhibition was achieved (IC50 (nM)) was determined. The following tables show the results.
[formula] • T: the emission intensity in a well into which a test compound was added. • C: the emission intensity in a well into which a test compound was not added.
(In general: ATP-based viability assays read luminescence as a measure of living cells.)

The target of assay [2] is Gppcp-bound recombinant K-Ras4B G12C mutant protein (amino acids 1-169, C51S/C80L/C118S) (Homo sapiens, UniProt P01116, C118S/C51S/C80L/G12C). As to the kind of experiment: KRASG12C binding assay (LC-MS, compound binding rate). The following applies: test compound final concentration 0.5 μM, 25° C., 1 hour. As to the method: As test compounds for the KRASG12C binding assay, the compounds obtained in the “Preparation of Compounds” section were used. Sample solutions each containing a test compound were prepared in the form of a 10 mM DMSO solution.
Gppcp-bound recombinant K-Ras4B G12C mutant protein (amino acids 1-169, C51S/C80L/C118S, SEQ ID NO:1) was diluted with a buffer (1×TBS, 0.1 mM TCEP, 0.25 mM MgCl2, 50 μM Gppcp) to prepare a 50 nM protein solution. K-Ras4B is the major splicing variant of K-Ras. Amino acid sequence of residues 1 to 150 including the compounds' binding region of K-Ras4B is exactly same as that of K-Ras4A, the other splicing variant (Oncotarget. 2016 Jul. 19; 7(29): 46717-46733). A sample solution containing 10 mM test compound was diluted ten-fold with DMSO to make a 1 mM sample solution, and then diluted twenty-fold with DMSO to make a 50 μM sample solution. 1 μL of a 50 μM sample solution was added to 100 μL of a 50 nM protein solution to adjust the final concentration of a test compound to be 0.5 μM in the mixture. The mixtures were stored in an incubator at 25° C. for 1 hour, and 10 μL of a 1×TBS solution containing 2% formic acid was added to stop the reaction, followed by LC-MS measurement. LC-MS measurement was performed using Xevo G2-S Q-Tof manufactured by Waters, and reverse-phase chromatography was performed with a desalting column. A mass spectrum of positive ions was obtained by electrospray. For a mass spectrum, a spectrum of polyvalent ions was collectively converted to a molecular weight by using OpenLynx software by the MaxEnt technique, and a compound binding rate was calculated from the ratio of the signal intensity of a peak that corresponds to the molecular weight of the protein to the signal intensity of a peak that corresponds to the molecular weight of the protein conjugated with the compound.
The binding assay of the test compounds was conducted at a final concentration of 0.5 μM. A binding rate of 80% or more is rated “A”, a binding rate of 60% or more and less than 80% is rated “B”, a binding rate of 40% or more and less than 60% is rated “C”, a binding rate of 20% or more and less than 40% is rated “D”, and a binding rate of less than 20% is rated “E”. N.D.=not determined. Binding rate % is the ratio of KRAS signal intensity at the molecular weight of one molecule adduct to the sum of all the KRAS signal intensity (unbound form and adducts) in mass spectrum. Thus, binding rate 100% means that only the one molecule adduct was observed without any unbound KRAS. The following tables show the results.

For `CO[C@H]1CC[C@H](NC/C=C/C(=O)Nc2c(F)cc(C(=O)c3cc(C)c4c(-c5c(C)cc6c(nc(C)n6C)c5Cl)cccn34)cc2F)CC1` [Example 87, (E)-N-(4-(8-(4-chloro-1,2,6-trimethyl-1H-benzo[d]imidazol-5-yl)-1-methylindolizine-3-carbonyl)-2,6-difluorophenyl)-4-(((1r,4r)-4-methoxycyclohexyl)amino)but-2-enamide], the IC50 (in general, the midpoint of a concentration-inhibition curve) in assay [1] stood at 35 nM; in the assay with MIA PaCa-2 cells (Homo sapiens, MIA PaCa-2, 72 h), 140 nM. Moreover, the binding rate entry in assay [2] was “A (A binding rate of 80% or more is rated “A”)”.
Consider `CO[C@H]1CC[C@H](NC/C=C/C(=O)Nc2c(F)cc(C(=O)c3ccc4c(-c5c(C)cc6c(nc(C)n6C)c5Cl)cccn34)cc2F)CC1` (single isomer, unassigned) [Example 19-2, (E)-N-(4-(8-(4-chloro-1,2,6-trimethyl-1H-benzo[d]imidazol-5-yl)indolizine-3-carbonyl)-2,6-difluorophenyl)-4-(((1r,4r)-4-methoxycyclohexyl)amino)but-2-enamide], for which the IC50 in assay [1] is 140 nM; with MIA PaCa-2 cells, 160 nM. Moreover, the binding rate entry in assay [2] was “A (A binding rate of 80% or more is rated “A”)”.
The like results for `COc1c(-c2cccn3c(C(=O)c4cc(F)c(NC(=O)/C=C/CNC5CCOCC5)c(F)c4)ccc23)c(C(F)(F)F)cc2c1nc(C)n2C` (single isomer, unassigned) [Example 61-2, (E)-N-(2,6-difluoro-4-(8-(4-methoxy-1,2-dimethyl-6-(trifluoromethyl)-1H-benzo[d]imidazol-5-yl)indolizine-3-carbonyl)phenyl)-4-((tetrahydro-2H-pyran-4-yl)amino)but-2-enamide] were, in that order, 28 nM, 10 nM and “A (A binding rate of 80% or more is rated “A”)”.
Regarding `Cn1cnc2cc(-c3cccn4c(C(=O)c5cc(F)c(NC(=O)/C=C/CNC6(C)CCOCC6)c(F)c5)ccc34)c(C(F)(F)F)cc21` [Example 11, (E)-N-(2,6-difluoro-4-(8-(1-methyl-6-(trifluoromethyl)-1H-benzo[d]imidazol-5-yl)indolizine-3-carbonyl)phenyl)-4-((4-methyltetrahydro-2H-pyran-4-yl)amino)but-2-enamide], the 50% inhibitory concentration (IC50) in assay [1] amounted to 21 nM; with MIA PaCa-2 cells (Homo sapiens, MIA PaCa-2, 72 h), 68 nM. Besides, the binding rate entry in assay [2] is given as “A (A binding rate of 80% or more is rated “A”)”.
For the compound `CCc1cc2c(ncn2C)c(Cl)c1-c1cccn2c(C(=O)c3cc(F)c(NC(=O)/C=C/CN[C@H]4CC[C@H](OC)CC4)c(F)c3)ccc12` [Example 10, (E)-N-(4-(8-(4-chloro-6-ethyl-1-methyl-1H-benzo[d]imidazol-5-yl)indolizine-3-carbonyl)-2,6-difluorophenyl)-4-(((1r,4r)-4-methoxycyclohexyl)amino)but-2-enamide], the half-inhibitory concentration (IC50) in assay [1] came to 69 nM; with MIA PaCa-2 cells (Homo sapiens, MIA PaCa-2, 72 h), 94 nM. In addition, the binding rate entry in assay [2] is on record as “A (A binding rate of 80% or more is rated “A”)”.
Regarding `Cc1nc2cc(-c3cccn4c(C(=O)c5cc(F)c(NC(=O)/C=C/CN[C@@H]6CCOC6)c(F)c5)ccc34)c(C(F)(F)F)cc2n1C` [Example 91], the IC50 stood at 75 nM in assay [1] and 100 nM in the assay with MIA PaCa-2 cells (Homo sapiens, MIA PaCa-2, 72 h). For the same compound, in assay [2], the binding rate entry was “A (A binding rate of 80% or more is rated “A”)”.
Consider `COc1c(-c2cc(F)cn3c(C(=O)c4cc(F)c(NC(=O)/C=C/CNC5(C)CC5)c(F)c4)cnc23)c(C(F)(F)F)cc2c1nc(C)n2C` (single isomer, unassigned) [Example 112-1, (E)-N-(2,6-difluoro-4-(6-fluoro-8-(4-methoxy-1,2-dimethyl-6-(trifluoromethyl)-1H-benzo[d]imidazol-5-yl)imidazo[1,2-a]pyridine-3-carbonyl)phenyl)-4-((1-methylcyclopropyl)amino)but-2-enamide], for which the values for the IC50 (in assay [1]; in the assay with MIA PaCa-2 cells) were 20.2 nM and 42.6 nM, respectively.
Consider `COCc1cc(C(=O)c2cc(F)c(NC(=O)/C=C/CN[C@H]3CC[C@H](OC)CC3)c(F)c2)n2cccc(-c3c(C)cc4c(nc(C)n4C)c3Cl)c12` [Example 103, (E)-N-(4-(8-(4-chloro-1,2,6-trimethyl-1H-benzo[d]imidazol-5-yl)-1-(methoxymethyl)indolizine-3-carbonyl)-2,6-difluorophenyl)-4-(((1r,4r)-4-methoxycyclohexyl)amino)but-2-enamide], for which the half-inhibitory concentration (IC50) in assay [1] worked out at 32 nM; in the assay with MIA PaCa-2 cells (Homo sapiens, MIA PaCa-2, 72 h), 74.8 nM. In addition, the binding rate entry in assay [2] is given as “A (A binding rate of 80% or more is rated “A”)”.
The like results for `CCc1cc2c(nc(C)n2C)c(Cl)c1-c1cccn2c(C(=O)c3cc(F)c(NC(=O)/C=C/CNC(C)(C)C)c(F)c3)ccc12` [Example 16, (E)-4-(tert-butylamino)-N-(4-(8-(4-chloro-6-ethyl-1,2-dimethyl-1H-benzo[d]imidazol-5-yl)indolizine-3-carbonyl)-2,6-difluorophenyl)but-2-enamide] were, in that order, 64 nM, 48 nM and “A (A binding rate of 80% or more is rated “A”)”.
On to `COc1cc2c(ncn2C)c(Cl)c1-c1cccn2c(C(=O)c3cc(F)c(NC(=O)/C=C/CNC(C)(C)C)c(F)c3)ccc12` (single isomer, unassigned) [Example 14-2, (E)-4-(tert-butylamino)-N-(4-(8-(4-chloro-6-methoxy-1-methyl-1H-benzo[d]imidazol-5-yl)indolizine-3-carbonyl)-2,6-difluorophenyl)but-2-enamide], for which the values for the IC50 (in assay [1]; in the assay with MIA PaCa-2 cells) were 56 nM and 42 nM, respectively. The binding rate result in assay [2] was “A (A binding rate of 80% or more is rated “A”)”.
